Experimental data published in patent publication US11000033B2, “Ketone or oxime compound, and herbicide” (NISSAN CHEMICAL CORPORATION, priority 2014, dated 2021).

Columns and labels:
[1] = tested on: Echinochloa oryzacola Vasing.; test: Test Example 1: herbicidal activity, application before weed generation in submerged conditions (symbol A); type: in vivo; settings: application herbicide amount 320 g/ha
Procedure, shortened: (§1)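 In a flooded pot test with alluvial soil, the emulsion-formulated compound was diluted with water to a predetermined amount and applied to the floodwater immediately on the sowing day. Pots were held in a greenhouse at 25–30 °C for 3 weeks before each weed was rated.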

Monochoria vaginalis = test: Test Example 1: herbicidal activity, application before weed generation in submerged conditions (symbol C); type: in vivo; settings: application herbicide amount 320 g/ha
Procedure, shortened: as §1

[2] = tested on: Echinochloa oryzacola Vasing.; test: Test Example 2: herbicidal activity, application during weed generation in submerged conditions (symbol A); type: in vivo; settings: Table 23; application herbicide amount 320 g/ha; grade 0-5 by criteria of Test Example 1
Procedure, shortened: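 Weeds emerging under flooded conditions were treated with compound formulated as an emulsion and diluted with water to the intended herbicide amount, poured onto the surface of 4 cm standing water. Seeds had been co-sown in alluvial soil; plants grew at 25° C. to 30° C. and were assessed after 3 weeks.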

Digitaria ciliaris = test: Test Example 4: herbicidal effect by soil treatment (symbol F); type: in vivo; settings: application herbicide amount 320 g/ha
Procedure, shortened: (§2)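 Seeds were sown in sterilized diluvial soil, covered with about 1.5 cm of soil, and the soil surface was sprayed with a water-diluted emulsion of the compound at a predetermined rate. Plants grew in a greenhouse at 25° C. to 30° C.; effects were scored visually 3 weeks after application.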

Veronica persica [3] = test: Test Example 4: herbicidal effect by soil treatment (symbol R); type: in vivo; settings: application herbicide amount 320 g/ha
Procedure, shortened: as §2

Avena fatua = test: Test Example 5: herbicidal effect by foliage application, plastic box (symbol I); type: in vivo; settings: 320 g/ha, 3 weeks after application
Procedure, shortened: (§3)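 Emulsion formulation, diluted with water to the intended rate, was applied uniformly to leaves by small sprayer. Recipients were 14-day greenhouse-grown seedlings (25° C. to 30° C.). Assessment followed at 3 weeks.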

Lolium multiflorum Lam. = test: Test Example 5: herbicidal effect by foliage application, plastic box (symbol K); type: in vivo; settings: 320 g/ha, 3 weeks after application
Procedure, shortened: as §3

Veronica persica [4] = test: Test Example 5: herbicidal effect by foliage application, plastic box (symbol R); type: in vivo; settings: 320 g/ha, 3 weeks after application
Procedure, shortened: as §3

beet = test: Test Example 5: effect on crop by foliage application, plastic box (symbol f); type: in vivo; settings: 320 g/ha, 3 weeks after application
Procedure, shortened: (§4)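 Crop seed is sown alongside grass and broadleaf weed species in spots in sterilized diluvial soil, then covered to a depth of about 1.5 cm. Plants grow in a greenhouse kept at 25° C. to 30° C.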

rapeseed = test: Test Example 5: effect on crop by foliage application, plastic box (symbol g); type: in vivo; settings: 320 g/ha, 3 weeks after application
Procedure, shortened: as §4

corn = test: Test Example 5: effect on crop by foliage application, plastic box (symbol c); type: in vivo; settings: 320 g/ha, 3 weeks after application
Procedure, shortened: as §4

Row | SMILES | Herbicidal effect grade, A: Echinochloa oryzacola Vasing. [1] | Herbicidal effect grade, C: Monochoria vaginalis (Monochoria vaginalis) | Herbicidal effect grade, A: Echinochloa oryzacola Vasing. [2] | Herbicidal effect grade, F: Digitaria ciliaris (Digitaria ciliaris) | Herbicidal effect grade, R: Veronica persica (Veronica persica [3]) | I: Avena fatua, herbicidal effect (criteria of Test Example 1) (Avena fatua) | K: Lolium multiflorum Lam., herbicidal effect (criteria of Test Example 1) (Lolium multiflorum Lam.) | R: Veronica persica, herbicidal effect (criteria of Test Example 1) (Veronica persica [4]) | f: beet, effect on crop (criteria of Test Example 1) (beet) | g: rapeseed, effect on crop (criteria of Test Example 1) (rapeseed) | melting point [°C] | c: corn, effect on crop (criteria of Test Example 1) (corn)
1 | CON=C(C)CC1CC(O)=C(c2c(F)cc(Br)cc2OC)C1=O (centres unmarked) [6-096] | 1 (Herbicidal ratio of 5% or higher and lower than 20%) | 0 (Herbicidal ratio of 5% or lower (almost no effect)) | 4 (Herbicidal ratio of 70% or higher and lower than 90%) | 4 (Herbicidal ratio of 70% or higher and lower than 90%) | 0 (Herbicidal ratio of 5% or lower (almost no effect)) | 5 (Herbicidal ratio of 90% or more (almost completely withered)) | 5 (Herbicidal ratio of 90% or more (almost completely withered)) | 3 (Herbicidal ratio of 40% or higher and lower than 70%) | 0 (Herbicidal ratio of 5% or lower (almost no effect)) | 4 (Herbicidal ratio of 70% or higher and lower than 90%) | 157 to 159 | –
2 | CC(=O)CC1CC(O)=C(c2c(C)cc(-c3ccccn3)cc2C)C1=O (centres unmarked) [7-012] | 3 (Herbicidal ratio of 40% or higher and lower than 70%) | 0 (Herbicidal ratio of 5% or lower (almost no effect)) | 3 (Herbicidal ratio of 40% or higher and lower than 70%) | 5 (Herbicidal ratio of 90% or more (almost completely withered)) | 0 (Herbicidal ratio of 5% or lower (almost no effect)) | 1 (Herbicidal ratio of 5% or higher and lower than 20%) | 5 (Herbicidal ratio of 90% or more (almost completely withered)) | 2 (Herbicidal ratio of 20% or higher and lower than 40%) | 0 (Herbicidal ratio of 5% or lower (almost no effect)) | 3 (Herbicidal ratio of 40% or higher and lower than 70%) | – | 3 (Herbicidal ratio of 40% or higher and lower than 70%)
3 | CC(=O)CC1CC(O)=C(c2c(C)cc(OCC(F)(F)F)cc2C)C1=O (centres unmarked) [7-015] | 5 (Herbicidal ratio of 90% or more (almost completely withered)) | 2 (Herbicidal ratio of 20% or higher and lower than 40%) | 5 (Herbicidal ratio of 90% or more (almost completely withered)) | 5 (Herbicidal ratio of 90% or more (almost completely withered)) | 0 (Herbicidal ratio of 5% or lower (almost no effect)) | 5 (Herbicidal ratio of 90% or more (almost completely withered)) | 5 (Herbicidal ratio of 90% or more (almost completely withered)) | 4 (Herbicidal ratio of 70% or higher and lower than 90%) | 0 (Herbicidal ratio of 5% or lower (almost no effect)) | 5 (Herbicidal ratio of 90% or more (almost completely withered)) | – | 5 (Herbicidal ratio of 90% or more (almost completely withered))
4 | CC(=O)CC1CC(O)=C(c2c(C)cc(OCc3ccccc3)cc2C)C1=O (centres unmarked) [7-018] | 2 (Herbicidal ratio of 20% or higher and lower than 40%) | 0 (Herbicidal ratio of 5% or lower (almost no effect)) | 1 (Herbicidal ratio of 5% or higher and lower than 20%) | 3 (Herbicidal ratio of 40% or higher and lower than 70%) | 0 (Herbicidal ratio of 5% or lower (almost no effect)) | 0 (Herbicidal ratio of 5% or lower (almost no effect)) | 2 (Herbicidal ratio of 20% or higher and lower than 40%) | 0 (Herbicidal ratio of 5% or lower (almost no effect)) | 0 (Herbicidal ratio of 5% or lower (almost no effect)) | 0 (Herbicidal ratio of 5% or lower (almost no effect)) | – | 1 (Herbicidal ratio of 5% or higher and lower than 20%)
5 | COc1cc(C)c(C2=C(O)CC(CC(C)=O)C2=O)c(C)c1 (centres unmarked) [7-020] | 2 (Herbicidal ratio of 20% or higher and lower than 40%) | 0 (Herbicidal ratio of 5% or lower (almost no effect)) | 1 (Herbicidal ratio of 5% or higher and lower than 20%) | 3 (Herbicidal ratio of 40% or higher and lower than 70%) | 0 (Herbicidal ratio of 5% or lower (almost no effect)) | 0 (Herbicidal ratio of 5% or lower (almost no effect)) | 4 (Herbicidal ratio of 70% or higher and lower than 90%) | 0 (Herbicidal ratio of 5% or lower (almost no effect)) | 0 (Herbicidal ratio of 5% or lower (almost no effect)) | 2 (Herbicidal ratio of 20% or higher and lower than 40%) | – | 0 (Herbicidal ratio of 5% or lower (almost no effect))
6 | CC(=O)CC1CC(O)=C(c2c(C)cc(-n3cccn3)cc2C)C1=O (centres unmarked) [7-024] | 2 (Herbicidal ratio of 20% or higher and lower than 40%) | 2 (Herbicidal ratio of 20% or higher and lower than 40%) | 1 (Herbicidal ratio of 5% or higher and lower than 20%) | 4 (Herbicidal ratio of 70% or higher and lower than 90%) | 0 (Herbicidal ratio of 5% or lower (almost no effect)) | 2 (Herbicidal ratio of 20% or higher and lower than 40%) | 3 (Herbicidal ratio of 40% or higher and lower than 70%) | 0 (Herbicidal ratio of 5% or lower (almost no effect)) | 0 (Herbicidal ratio of 5% or lower (almost no effect)) | 2 (Herbicidal ratio of 20% or higher and lower than 40%) | – | 1 (Herbicidal ratio of 5% or higher and lower than 20%)
7 | COc1cc(Br)cc(C)c1C1=C(O)CC(CC(C)=O)C1=O (centres unmarked) [7-027, 2-(4-bromo-2-methoxy-6-methylphenyl)-3-hydroxy-5-(2-oxopropyl)cyclopent-2-enone] | 4 (Herbicidal ratio of 70% or higher and lower than 90%) | 2 (Herbicidal ratio of 20% or higher and lower than 40%) | 3 (Herbicidal ratio of 40% or higher and lower than 70%) | 5 (Herbicidal ratio of 90% or more (almost completely withered)) | 0 (Herbicidal ratio of 5% or lower (almost no effect)) | 5 (Herbicidal ratio of 90% or more (almost completely withered)) | 5 (Herbicidal ratio of 90% or more (almost completely withered)) | 0 (Herbicidal ratio of 5% or lower (almost no effect)) | 0 (Herbicidal ratio of 5% or lower (almost no effect)) | 2 (Herbicidal ratio of 20% or higher and lower than 40%) | – | 5 (Herbicidal ratio of 90% or more (almost completely withered))
